Values quoted from earlier work, collected in patent publication US20200054560A1 (Alnova Pharmaceuticals, Ltd., priority 2017, published 2020).

Question: Which “solubility in N,N-dimethylformamide” value (N,N-dimethylformamide) does the source give for CC(=O)c1c(C)c2cnc(Nc3ccc(N4CCNCC4)cn3)nc2n(C2CCCC2)c1=O [Palbociclib, 6-acetyl-8-cyclopentyl-5-methil-2-(5-piperazin-1-yl-pyridin-2-ylamino)-8H-pyrido [2,3-d] pyridin-7-one] here?
Answer: Its value is “slightly soluble”.

Question: What about the “solubility above pH 4” value (above pH 4) of the same compound?
Answer: The value was “reduces significantly”.

Question: What about the “solubility behaviour at or below pH 4” value (at or below pH 4) of the same compound?
Answer: Its value is “high-solubility compound”.

Question: And the “solubility in dimethyl sulfoxide” value (dimethyl sulfoxide)?
Answer: Its value is “slightly soluble”.

Question: And the solubility in methanol (methanol)?
Answer: Its solubility in methanol is “very slightly soluble”.

Question: What about the solubility in water (water) of the same compound?
Answer: The solubility in water was “very slightly soluble”.
